Values joined by “and” are separate entries in the source; they are usually repeats but may differ in a detail not shown here. Identical values can stand only once. Like-named read-outs stand apart in the source and are kept apart here.
Columns and labels:
[1] = molecular target: T1, PfcProRS (Plasmodium falciparum, UniProt Q8I5R7); format: binding; conditions: single replicates
T1 construct: made in house; host or cells: E. coli SoluBL-21

[2] = molecular target: HsProRS (Homo sapiens, UniProt P07814); assay: TR-FRET ligand displacement assay with tracer MAT379 (CoraFluor-1-Halo and anti-His6 antibody formats); format: binding; parameters: made in house; host or cells: E. coli SoluBL-21; conditions: for TR-FRET dose-response, normalized signal (SI Fig 11): individual replicates
[3] = test system: P. falciparum Dd2-2D4; assay: P. falciparum asexual blood stage (ABS) growth assay, SYBR Green, 72 h, wild-type parasites; format: cell-based, Plasmodium falciparum; conditions: Plasmodium falciparum, DD2; SI Fig 16b; values on -log scale; read-out: ABS - Dd2-2D4 (converted)
Method: Parasites were maintained under standard culture conditions as described previously[56],[57]. […] The P. falciparum Dd2 cell lines used in this study (Dd2-2D4, halofuginone-induced, and HFGR-I) have previously undergone whole genome sequencing in our labs.
This assay was performed as previously described[8]. In short, P. falciparum erythrocytic-stage parasites at 1% parasitemia and 1% hematocrit in RPMI + 0.5% Albumax were seeded at 40 μL/well in 384-well plates with test compounds in triplicate, dose-response format with 10 μM dihydroartemisinin as a kill-control and blank (no compound) wells as a growth-control. […] After 72 h, growth was quantified by measuring fluorescence (Molecular Devices SpectraMax iD5) following SYBR Green 1 staining. Data were analyzed in Excel and plotted in PRISM (V. 8.4.3–9.1.0, GraphPad).

T1 sequence (Q8I5R7 249-746): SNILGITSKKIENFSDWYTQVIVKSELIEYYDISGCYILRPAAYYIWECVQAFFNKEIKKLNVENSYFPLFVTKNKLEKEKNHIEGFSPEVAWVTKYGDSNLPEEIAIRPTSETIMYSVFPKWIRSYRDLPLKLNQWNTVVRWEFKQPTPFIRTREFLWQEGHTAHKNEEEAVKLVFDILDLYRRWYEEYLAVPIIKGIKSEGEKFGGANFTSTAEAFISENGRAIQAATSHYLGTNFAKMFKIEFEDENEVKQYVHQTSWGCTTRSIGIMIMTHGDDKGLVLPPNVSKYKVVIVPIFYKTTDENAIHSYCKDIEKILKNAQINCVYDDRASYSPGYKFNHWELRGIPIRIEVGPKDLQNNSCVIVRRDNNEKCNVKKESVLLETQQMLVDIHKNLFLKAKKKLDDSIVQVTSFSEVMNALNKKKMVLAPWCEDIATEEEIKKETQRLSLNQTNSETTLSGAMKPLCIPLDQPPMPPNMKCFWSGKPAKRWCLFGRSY
HsProRS, sequence (P07814 996-1512): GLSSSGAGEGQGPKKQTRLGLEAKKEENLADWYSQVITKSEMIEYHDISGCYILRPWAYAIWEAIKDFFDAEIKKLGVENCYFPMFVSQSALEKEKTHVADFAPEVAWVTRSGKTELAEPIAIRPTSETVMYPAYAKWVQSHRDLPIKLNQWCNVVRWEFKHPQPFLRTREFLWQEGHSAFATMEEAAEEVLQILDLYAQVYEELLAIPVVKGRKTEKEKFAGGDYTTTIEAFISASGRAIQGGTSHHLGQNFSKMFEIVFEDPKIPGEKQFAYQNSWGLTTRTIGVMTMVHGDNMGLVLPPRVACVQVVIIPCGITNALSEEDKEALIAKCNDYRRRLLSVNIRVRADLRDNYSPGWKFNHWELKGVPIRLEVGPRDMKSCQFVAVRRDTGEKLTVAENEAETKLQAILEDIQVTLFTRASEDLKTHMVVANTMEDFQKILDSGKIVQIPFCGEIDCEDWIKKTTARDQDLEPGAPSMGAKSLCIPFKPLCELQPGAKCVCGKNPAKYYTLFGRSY

## CC(C)(C)OC(=O)N1CCN(C(=O)Nc2nccnc2C(=O)NC2Cc3ccccc3C2)CC1 [compound 13]
[1]; Log[inhibitor] (M) -5.000
  dose-response signal (normalized), SI Fig 8: 6.57E-01 and 6.36E-01 and 6.64E-01
[1]; Log[inhibitor] (M) -5.301
  dose-response signal (normalized), SI Fig 8: 8.73E-01 and 7.48E-01 and 7.96E-01
[1]; Log[inhibitor] (M) -5.601
  dose-response signal (normalized), SI Fig 8: 9.97E-01 and 9.02E-01 and 8.50E-01
[1]; Log[inhibitor] (M) -5.904
  dose-response signal (normalized), SI Fig 8: 9.78E-01 and 1.07E+00 and 1.00E+00
[1]; Log[inhibitor] (M) -6.208
  dose-response signal (normalized), SI Fig 8: 1.06E+00 (2×) and 9.45E-01
[1]; Log[inhibitor] (M) -6.509
  dose-response signal (normalized), SI Fig 8: 1.17E+00 and 1.01E+00 and 1.09E+00
[1]; Log[inhibitor] (M) -6.796
  dose-response signal (normalized), SI Fig 8: 1.13E+00 and 1.01E+00 and 1.17E+00
[1]; Log[inhibitor] (M) -7.108
  dose-response signal (normalized), SI Fig 8: 1.04E+00 and 9.91E-01 and 1.15E+00
[1]; Log[inhibitor] (M) -7.409
  dose-response signal (normalized), SI Fig 8: 1.05E+00 and 1.06E+00 and 1.03E+00
[1]; Log[inhibitor] (M) -7.710
  dose-response signal (normalized), SI Fig 8: 1.04E+00 and 9.80E-01 and 9.98E-01
[1]; Log[inhibitor] (M) -8.000
  dose-response signal (normalized), SI Fig 8: 1.08E+00 and 9.50E-01 and 1.05E+00
[1]; Log[inhibitor] (M) -8.301
  dose-response signal (normalized), SI Fig 8: 1.02E+00 and 1.08E+00 and 1.09E+00
[1]; Log[inhibitor] (M) -8.602
  dose-response signal (normalized), SI Fig 8: 9.84E-01 and 9.74E-01 and 9.67E-01
[1]; Log[inhibitor] (M) -9.000
  dose-response signal (normalized), SI Fig 8: 1.06E+00 and 9.60E-01 and 9.76E-01
[1]; Log[inhibitor] (M) -9.301
  dose-response signal (normalized), SI Fig 8: 1.07E+00 and 9.33E-01 and 9.62E-01
[2]
  IC50: > 10 µM
[2]; + 100 μM proline, 10 μM
  HsProRS % signal at 10 μM, + 100 μM proline: 52.2%
[2]; Log[inhibitor] (M) -5.000
  normalized TR-FRET ligand displacement signal, dose-response replicates (SI Fig 6): 5.04E-01 and 5.72E-01 and 5.31E-01
  TR-FRET dose-response, normalized signal (SI Fig 11): 5.54E-01 and 6.12E-01 and 6.15E-01
[2]; Log[inhibitor] (M) -5.301
  normalized TR-FRET ligand displacement signal, dose-response replicates (SI Fig 6): 6.63E-01 and 7.73E-01 and 7.12E-01
  TR-FRET dose-response, normalized signal (SI Fig 11): 7.87E-01 and 7.25E-01 and 6.74E-01
[2]; Log[inhibitor] (M) -5.601
  normalized TR-FRET ligand displacement signal, dose-response replicates (SI Fig 6): 9.43E-01 and 7.95E-01 and 9.57E-01
  TR-FRET dose-response, normalized signal (SI Fig 11): 8.12E-01 and 8.26E-01 and 8.38E-01
[2]; Log[inhibitor] (M) -5.904
  normalized TR-FRET ligand displacement signal, dose-response replicates (SI Fig 6): 9.95E-01 and 9.88E-01 and 9.03E-01
  TR-FRET dose-response, normalized signal (SI Fig 11): 8.50E-01 and 8.61E-01 and 8.43E-01
[2]; Log[inhibitor] (M) -6.208
  normalized TR-FRET ligand displacement signal, dose-response replicates (SI Fig 6): 1.02E+00 and 9.02E-01 and 9.17E-01
  TR-FRET dose-response, normalized signal (SI Fig 11): 9.15E-01 and 9.28E-01 and 8.71E-01
[2]; Log[inhibitor] (M) -6.509
  normalized TR-FRET ligand displacement signal, dose-response replicates (SI Fig 6): 9.58E-01 and 9.37E-01 and 9.28E-01
  TR-FRET dose-response, normalized signal (SI Fig 11): 9.05E-01 and 9.50E-01 and 9.14E-01
[2]; Log[inhibitor] (M) -6.796
  normalized TR-FRET ligand displacement signal, dose-response replicates (SI Fig 6): 1.05E+00 (2×) and 9.53E-01
  TR-FRET dose-response, normalized signal (SI Fig 11): 9.07E-01 and 9.30E-01 and 8.71E-01
[2]; Log[inhibitor] (M) -7.108
  normalized TR-FRET ligand displacement signal, dose-response replicates (SI Fig 6): 1.05E+00 and 1.10E+00 and 9.73E-01
  TR-FRET dose-response, normalized signal (SI Fig 11): 9.13E-01 and 9.30E-01 and 9.12E-01
[2]; Log[inhibitor] (M) -7.409
  normalized TR-FRET ligand displacement signal, dose-response replicates (SI Fig 6): 1.03E+00 and 1.01E+00 (2×)
  TR-FRET dose-response, normalized signal (SI Fig 11): 9.32E-01 and 9.37E-01 and 8.25E-01
[2]; Log[inhibitor] (M) -7.710
  normalized TR-FRET ligand displacement signal, dose-response replicates (SI Fig 6): 9.23E-01 (2×) and 9.87E-01
  TR-FRET dose-response, normalized signal (SI Fig 11): 9.18E-01 and 8.75E-01 and 8.91E-01
[2]; Log[inhibitor] (M) -8.000
  normalized TR-FRET ligand displacement signal, dose-response replicates (SI Fig 6): 9.04E-01 and 9.35E-01 and 9.98E-01
  TR-FRET dose-response, normalized signal (SI Fig 11): 9.32E-01 and 9.16E-01 and 8.80E-01
[2]; Log[inhibitor] (M) -8.301
  normalized TR-FRET ligand displacement signal, dose-response replicates (SI Fig 6): 9.80E-01 and 9.08E-01 and 1.02E+00
  TR-FRET dose-response, normalized signal (SI Fig 11): 8.80E-01 and 9.57E-01 and 9.53E-01
[2]; Log[inhibitor] (M) -8.602
  normalized TR-FRET ligand displacement signal, dose-response replicates (SI Fig 6): 9.80E-01 and 9.47E-01 and 9.05E-01
  TR-FRET dose-response, normalized signal (SI Fig 11): 9.10E-01 and 9.58E-01 and 9.24E-01
[2]; Log[inhibitor] (M) -9.000
  normalized TR-FRET ligand displacement signal, dose-response replicates (SI Fig 6): 9.78E-01 and 9.57E-01 and 9.87E-01
  TR-FRET dose-response, normalized signal (SI Fig 11): 9.07E-01 and 8.93E-01 and 8.97E-01
[2]; Log[inhibitor] (M) -9.301
  normalized TR-FRET ligand displacement signal, dose-response replicates (SI Fig 6): 9.45E-01 and 8.63E-01 and 9.67E-01
  TR-FRET dose-response, normalized signal (SI Fig 11): 9.11E-01 and 8.69E-01 and 9.61E-01
[2]; no added proline/ATP (-), 10 μM
  HsProRS % signal at 10 μM: 59.4%
[2]; read-out: HsProRS IC50 + 100 μM proline, + 100 μM proline
  IC50: > 10 µM

## O=C(NC1Cc2ccccc2C1)c1nccnc1NC(=O)C1(O)CCCCC1 [compound 15]
[3]
  EC50: 1500 nM
[2]; HsProRS (KD [nM]) mean, no added proline/ATP (-)
  Kd: 2700 nM
[2]; HsProRS - best Kd, SI Fig 16a, values on -log scale
  Kd: 21.8 nM
